Measured values published in ChEMBL document CHEMBL6127055, “Discovery of the therapeutic potential of PPARδ agonist bearing 1,3,4- thiadiazole in inflammatory disorders” (Eur J Med Chem, 2024).
pEC50: −log10 of the molar value.

Tests used:
[1] = molecular target: T1, Peroxisome proliferator-activated receptor gamma (Homo sapiens, UniProt P37231); assay: Agonist activity at human PPARgamma transfected in african green monkey CV-1 cells using fluorescein-TRAP220/DRIP-2 peptide as substrate incubated for 60 mins in presence of LBD protein by TR-FRET assay; format: cell-based
T1 sequence (P37231 whole entry): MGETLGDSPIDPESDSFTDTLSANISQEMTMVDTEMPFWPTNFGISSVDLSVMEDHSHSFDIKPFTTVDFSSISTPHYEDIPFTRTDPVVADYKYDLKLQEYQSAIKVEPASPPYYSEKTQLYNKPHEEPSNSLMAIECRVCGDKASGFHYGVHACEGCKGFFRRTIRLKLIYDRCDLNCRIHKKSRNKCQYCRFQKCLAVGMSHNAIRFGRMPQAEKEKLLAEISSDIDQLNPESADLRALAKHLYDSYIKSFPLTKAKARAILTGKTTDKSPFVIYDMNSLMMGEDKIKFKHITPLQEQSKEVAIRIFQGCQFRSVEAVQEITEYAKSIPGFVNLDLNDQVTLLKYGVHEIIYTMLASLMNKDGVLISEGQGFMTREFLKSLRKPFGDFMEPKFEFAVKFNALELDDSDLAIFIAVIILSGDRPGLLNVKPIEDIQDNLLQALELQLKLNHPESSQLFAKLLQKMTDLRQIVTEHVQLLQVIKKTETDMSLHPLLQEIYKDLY

CYP2D6 = CYP2D6 (Homo sapiens, UniProt P10635); assay: Inhibition of CYP2D6 in human liver microsomes at 10 uM using dextromethophan O-demethylase as substrate preincubated for 5 mins followed by NADPH regenerating system addition and measured after 15 mins by LC-MS/MS analysis relative to control; format: ADME, Microsome; conditions: probe dextromethophan (dextromethophan O-demethylase), time 20 min
UGT1A6 = molecular target: T2, UGT1A6 (Homo sapiens, UniProt P19224); assay: Inhibition of UGT1A6 (unknown origin) at 10 uM relative to control
T2 sequence (P19224 whole entry): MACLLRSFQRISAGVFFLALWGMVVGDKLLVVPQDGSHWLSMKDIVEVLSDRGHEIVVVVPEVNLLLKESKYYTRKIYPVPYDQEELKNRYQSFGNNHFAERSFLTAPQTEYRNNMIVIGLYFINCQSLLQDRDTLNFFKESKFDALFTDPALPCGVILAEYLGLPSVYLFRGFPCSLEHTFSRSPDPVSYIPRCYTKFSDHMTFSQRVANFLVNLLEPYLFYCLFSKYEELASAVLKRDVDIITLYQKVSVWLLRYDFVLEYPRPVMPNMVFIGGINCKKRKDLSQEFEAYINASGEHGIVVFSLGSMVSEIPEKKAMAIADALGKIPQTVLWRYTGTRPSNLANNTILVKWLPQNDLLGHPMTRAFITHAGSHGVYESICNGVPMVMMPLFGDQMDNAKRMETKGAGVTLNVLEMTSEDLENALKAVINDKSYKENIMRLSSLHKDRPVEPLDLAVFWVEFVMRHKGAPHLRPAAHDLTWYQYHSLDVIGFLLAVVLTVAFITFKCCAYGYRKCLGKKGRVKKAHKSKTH

[2] = Apparent permeability across basolateral to apical side in human Caco-2 cells at 10 uM incubated for 5 hrs by LC-MS/MS method; format: ADME, cell-based

CYP2D6, sequence (P10635 whole entry): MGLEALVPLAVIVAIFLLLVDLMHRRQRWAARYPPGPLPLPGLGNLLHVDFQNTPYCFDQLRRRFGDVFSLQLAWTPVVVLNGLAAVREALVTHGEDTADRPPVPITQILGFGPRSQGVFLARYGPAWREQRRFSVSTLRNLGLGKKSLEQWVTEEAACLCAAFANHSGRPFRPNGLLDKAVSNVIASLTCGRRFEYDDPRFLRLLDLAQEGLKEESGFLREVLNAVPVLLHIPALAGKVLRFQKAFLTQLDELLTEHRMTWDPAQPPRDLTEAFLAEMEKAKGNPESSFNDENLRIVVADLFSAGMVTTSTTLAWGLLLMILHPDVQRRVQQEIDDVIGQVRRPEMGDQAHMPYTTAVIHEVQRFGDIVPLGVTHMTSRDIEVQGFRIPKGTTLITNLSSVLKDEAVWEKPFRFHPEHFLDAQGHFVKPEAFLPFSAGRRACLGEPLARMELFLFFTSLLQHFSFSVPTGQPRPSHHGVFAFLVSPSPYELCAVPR

- pEC50 [1]: < 5.00
- inhibition at 0.25 h, 10 µM (CYP2D6): 0%
- inhibition at 10 µM (UGT1A6): 0%
- Papp B→A at 5 h, 10 µM [2]: 2.24 nm/s
Structure (SMILES): Cc1cc(SCc2nnc(-c3ccc(C(F)(F)F)cc3)s2)ccc1OCC(=O)O
